Measurements reported in article PMC6162288, “On-chip spatiotemporal electrophysiological analysis of human stem cell derived cardiomyocytes enables quantitative assessment of proarrhythmia in drug development” (Scientific Reports, 2018).
“Also recorded” adds a separate entry of the source.

Columns and labels:
lined-up hESC-CMs = assay: MEA field potential recording of lined-up hESC-CMs (cFPD, CT, their STVs, ISI, beat rate, arrest); assay type: cell-based, human
Procedure: Human embryonic stem cell-derived cardiomyocytes clusters (hES-CMCs) were shipped from Cellectis (hES-CMCTM002, hES cell line SA002, Gothenburg, Sweden)[42],[43], and maintained in Dulbecco’s modified Eagle’s medium (DMEM) supplemented 20% heat-inactivated fetal bovaine serum, 1 mM GlutaMax, 100 U/mL penicillin, 0.1 mg/mL streptomycin, 1% nonessential amino acids and 0.1 mM β-mercaptoethanol (Invitrogen, Carsbad, CA, USA). Dispersed cardiomyocytes were isolated from hES-CMCs by a modification of the methods of Norström et al.[44]–[48]. […] The supernatant was gently aspirated with pipette, and a 5-hold volume of DMEM was added as stop solution. Remaining clusters were treats ed with the above process with several times. The supernatants were collected and centrifuged with 200 × g for 2–3 min at 4 °C. The resulting supernatant including dispersed cells was seeded into agarose microchambers on an MEA chip (MED-P530A; AlphaMED scientific. Co. Ltd., Japan)[40].
The MEA chip surface was prepared as follows. First, the chip surface was coated with collagen type I-C (Nitta Gelatin, Japan). After drying, the chip surface was coated with a 0.1% agarose gel. […] At >30 min before the start of experiment, the medium was changed to 2 mL pre-warmed fresh maintenance medium per chip.
Extracellular potential recordings of the lined-up hESC-CMs were performed using the MEA system at a sampling rate of 10 kHz with a low path filter of 2 kHz and high path filter of 1 Hz, and signals were amplified by 100–50,000 using the amplifier. The MEA chip with lined-up hESC-CMs was set in the FP measurement device and placed in a humidified cell culture incubator at 37 °C, 5% CO2. The signals were analyzed by Igor Pro 6.0 (WaveMetrics, Inc., USA) and FlexPro 7.0 (Weisang GmbH, Germany).
We adopted the same drug administration protocol as we examined previously[40] (Fig. 2B). Briefly, the MEA chips of lined-up cells for experiments were selected from the chips having 0.6–1.1 Hz beating frequency and ventricle-like waveforms of FP recordings (see Fig. 1B,D). The MEA chip was placed in the holder of the FP measurement device, and equilibrated for 5 min, and then the control FP waveforms were recorded for 10 min. Subsequently, the drug was applied to the medium at 1% dilution in serially increasing additions, and the FP waveforms were recorded for 10 min at each concentration. Finally, the drug-containing medium was replaced with fresh medium after washing three times. The last 50 beats extracted from 10 min recorded FP waveform data was used for beat rate, FPD (the time from first depolarization peak to broad repolarization peak) and CT (the time difference of the first peaks between separately placed electrodes in lined-upped cell-network) measurement at each concentration (Fig. 2C).
It was normalized (cFPD) to the beating rate of cardiomyocytes using Bazett’s correction formula based on the comparison of the slope of a plot of inter-spike interval and FPD, or corrected FPD by Bazett’s or Fridericia’s formulae (Fig. 3). The short-term variability (STV) of cFPD and CT, which was defined as the mean distance of points perpendicular to the line of identity in the Poincaré plot, was calculated ( STV=∑|D(n+1)−Dn|/(n×2) , where Dn represents the FPD and CT of n-th beating). STVs were last 50 beat data from 5 min extraction of cFPD and CT. To assess the arrhythmogenicity risk of test drugs, the mean values of cFPD, STVcFPD, CT and STVCT of each drug were plotted.

[1] = effective therapeutic plasma concentration; cited from earlier work
[2] = Conc. 10^2 nM (0.1 μM), change vs Ctrl.
[3] = Conc. 10^3 nM (1 μM), change vs Ctrl.
[4] = Conc. 10^−1 nM, change vs Ctrl.
[5] = Conc. 10^4 nM (10 μM), change vs Ctrl.
[6] = Conc. 10^5 nM (100 μM), change vs Ctrl.
[7] = Conc. 10^5 nM (100 μM), change vs Ctrl., listed as lidocaine

SMILES: Cc1cccc(CCN2CCC(C(=O)c3ccc(NS(C)(=O)=O)cc3)CC2)n1 [E-4031]
- STVcFPD (lined-up hESC-CMs; 1 μM): more than doubled
- BR (beat rate) (lined-up hESC-CMs; Conc. 1 nM, change vs Ctrl.): 3.9%
- Cond. Time (CT) (lined-up hESC-CMs; Conc. 1 nM, change vs Ctrl.): −4.3%
- ISI (inter-spike interval) (lined-up hESC-CMs; Conc. 1 nM, change vs Ctrl.): −3.7%
- STVCT (lined-up hESC-CMs; Conc. 1 nM, change vs Ctrl.): 19%
- STVcFPD (lined-up hESC-CMs; Conc. 1 nM, change vs Ctrl.): −3.6%
- cFPD (lined-up hESC-CMs; Conc. 1 nM, change vs Ctrl.): 0.69%
- BR (beat rate) (lined-up hESC-CMs; Conc. 10 nM, change vs Ctrl.): 4.5%
- Cond. Time (CT) (lined-up hESC-CMs; Conc. 10 nM, change vs Ctrl.): 2.1%
- ISI (inter-spike interval) (lined-up hESC-CMs; Conc. 10 nM, change vs Ctrl.): −4.2%
- STVCT (lined-up hESC-CMs; Conc. 10 nM, change vs Ctrl.): 5.7%
- STVcFPD (lined-up hESC-CMs; Conc. 10 nM, change vs Ctrl.): 17%
- cFPD (lined-up hESC-CMs; Conc. 10 nM, change vs Ctrl.): 7.1%
- Cond. Time (CT) (lined-up hESC-CMs; [2]): 10%
- STVCT (lined-up hESC-CMs; [2]): 43%
- STVcFPD (lined-up hESC-CMs; [2]): 94%
- cFPD (lined-up hESC-CMs; [2]): 30%
- cFPD (lined-up hESC-CMs; Conc. 10^2 nM (0.1 μM), change vs Ctrl., listed as E-4301): 30%
- BR (beat rate) (lined-up hESC-CMs; Conc. 10^2 nM, change vs Ctrl.): 5.1%
- ISI (inter-spike interval) (lined-up hESC-CMs; Conc. 10^2 nM, change vs Ctrl.): −4.7%
- Cond. Time (CT) (lined-up hESC-CMs; [3]): 49%
- STVcFPD (lined-up hESC-CMs; [3]): 110%
- cFPD (lined-up hESC-CMs; [3]): 47%
- cFPD (lined-up hESC-CMs; Conc. 10^3 nM (1 μM), change vs Ctrl., listed as E-4301): 47%
- BR (beat rate) (lined-up hESC-CMs; Conc. 10^3 nM, change vs Ctrl.): 5.8%
- ISI (inter-spike interval) (lined-up hESC-CMs; Conc. 10^3 nM, change vs Ctrl.): −5.1%
- BR (beat rate) (lined-up hESC-CMs; [4]): 2.6%
- ISI (inter-spike interval) (lined-up hESC-CMs; [4]): −2.5%
- STVCT (lined-up hESC-CMs; [4]): 52%
- STVcFPD (lined-up hESC-CMs; [4]): 2.9%
- cFPD (lined-up hESC-CMs; [4]): 0.52%
- Cond. Time (CT) (lined-up hESC-CMs; Conc. 10^−1 nM, change vs Ctrl., 150 μm inter-electrode distance): 8.9%
- CT (mean conduction time) (lined-up hESC-CMs; any tested concentration): did not significantly change; also recorded: did not increase

SMILES: CCN(CC)CC(=O)Nc1c(C)cccc1C [Lidocaine, lidocaine]
- EPTC [1]: 5,970–25,603[69] nM
- cFPD change (lined-up hESC-CMs; 10–100 μM, P < 0.05): −18%
- BR (beat rate) (lined-up hESC-CMs; Conc. 10 nM, change vs Ctrl.): 3.6%
- ISI (inter-spike interval) (lined-up hESC-CMs; Conc. 10 nM, change vs Ctrl.): −3.4%
- STVCT (lined-up hESC-CMs; Conc. 10 nM, change vs Ctrl.): 46%
- STVcFPD (lined-up hESC-CMs; Conc. 10 nM, change vs Ctrl.): 54%
- cFPD (lined-up hESC-CMs; Conc. 10 nM, change vs Ctrl.): 9.5%
- Cond. Time (CT) (lined-up hESC-CMs; [2]): −6.0%
- STVCT (lined-up hESC-CMs; [2]): 43%
- STVcFPD (lined-up hESC-CMs; [2]): 38%
- cFPD (lined-up hESC-CMs; [2]): 10%
- BR (beat rate) (lined-up hESC-CMs; Conc. 10^2 nM, change vs Ctrl.): 4.4%
- ISI (inter-spike interval) (lined-up hESC-CMs; Conc. 10^2 nM, change vs Ctrl.): −4.2%
- Cond. Time (CT) (lined-up hESC-CMs; [3]): −7.4%
- STVCT (lined-up hESC-CMs; [3]): 35%
- STVcFPD (lined-up hESC-CMs; [3]): 54%
- cFPD (lined-up hESC-CMs; [3]): 9.7%
- BR (beat rate) (lined-up hESC-CMs; Conc. 10^3 nM, change vs Ctrl.): 2.8%
- ISI (inter-spike interval) (lined-up hESC-CMs; Conc. 10^3 nM, change vs Ctrl.): −2.6%
- Cond. Time (CT) (lined-up hESC-CMs; [5]): 4.7%
- STVCT (lined-up hESC-CMs; [5]): 134%
- STVcFPD (lined-up hESC-CMs; [5]): 345%
- cFPD (lined-up hESC-CMs; [5]): −18%
- STVCT (lined-up hESC-CMs; Conc. 10^4 nM (10 μM), change vs Ctrl., listed as lidocaine): 134%
- BR (beat rate) (lined-up hESC-CMs; Conc. 10^4 nM, change vs Ctrl.): −48%
- ISI (inter-spike interval) (lined-up hESC-CMs; Conc. 10^4 nM, change vs Ctrl.): 128%
- Cond. Time (CT) (lined-up hESC-CMs; [6]): 22%
- STVCT (lined-up hESC-CMs; [6]): 54%
- STVcFPD (lined-up hESC-CMs; [6]): 143%
- cFPD (lined-up hESC-CMs; [6]): −18%
- Cond. Time (CT) (lined-up hESC-CMs; [7]): 22.1%
- STVCT (lined-up hESC-CMs; [7]): 54%
- BR (beat rate) (lined-up hESC-CMs; Conc. 10^5 nM, change vs Ctrl.): −51%
- ISI (inter-spike interval) (lined-up hESC-CMs; Conc. 10^5 nM, change vs Ctrl.): 160%
- CT (lined-up hESC-CMs; at equivalent concentrations of Nav1.5 IC50): increased
